Measured values published in patent US12077503B2, “Substituted cyclic amides and their use as herbicides” (FMC CORPORATION, priority 2015, dated 2024).

Experiments:
Type in all cases: in vivo
[1] = test system: ryegrass, Italian (Italian ryegrass, Lolium multiflorum); test: Test A preemergence; details: Preemergence; for Plant response rating, Ryegrass, Italian: 125 g ai/ha, visual injury after approximately 10 d, 0 to 100 scale where 0 is no effect and 100 is complete control; for Ryegrass, Italian plant response rating (0 to 100 scale, 0 is no effect, 100 is complete control): 500 g ai/ha, visual injury approx. 10 d
How it was run: (§1)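 Ratings of 0 (no effect) to 100 (complete control) come from visual comparison with untreated controls roughly 10 d after treatment. Test chemicals, formulated in a non-phytotoxic solvent mixture with surfactant, were applied either as a preemergence directed soil spray on seeded soil or postemergence to one- to two-leaf plants 2 to 10 cm tall.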

[2] = test system: barnyardgrass (Echinochloa crus-galli); test: Test A preemergence; details: Preemergence; for Plant response rating, Barnyardgrass: 125 g ai/ha, visual injury after approximately 10 d, 0 to 100 scale where 0 is no effect and 100 is complete control; for Barnyardgrass plant response rating (0 to 100 scale, 0 is no effect, 100 is complete control): 500 g ai/ha, visual injury approx. 10 d
How it was run: as §1

[3] = test system: ragweed (common ragweed, Ambrosia elatior); test: Test A preemergence; details: Preemergence; for Plant response rating, Ragweed: 125 g ai/ha, visual injury after approximately 10 d, 0 to 100 scale where 0 is no effect and 100 is complete control
How it was run: as §1

[4] = test system: giant foxtail (Setaria faberii); test: Test A preemergence; details: Preemergence; for Plant response rating, Foxtail, Giant: 125 g ai/ha, visual injury after approximately 10 d, 0 to 100 scale where 0 is no effect and 100 is complete control; for Foxtail, Giant plant response rating (0 to 100 scale, 0 is no effect, 100 is complete control): 500 g ai/ha, visual injury approx. 10 d
How it was run: as §1

[5] = test system: pigweed (Amaranthus retroflexus); test: Test A preemergence; details: Preemergence; for Plant response rating, Pigweed: 125 g ai/ha, visual injury after approximately 10 d, 0 to 100 scale where 0 is no effect and 100 is complete control; for Pigweed plant response rating (0 to 100 scale, 0 is no effect, 100 is complete control): 500 g ai/ha, visual injury approx. 10 d
[6] = test system: Kochia (Kochia scoparia); test: Test A preemergence; details: Preemergence; for Plant response rating, Kochia: 125 g ai/ha, visual injury after approximately 10 d, 0 to 100 scale where 0 is no effect and 100 is complete control; for Kochia plant response rating (0 to 100 scale, 0 is no effect, 100 is complete control): 500 g ai/ha, visual injury approx. 10 d
How it was run: as §1

[7] = test system: sedge, umbrella (small-flower umbrella sedge, Cyperus difformis); test: Test B flooded paddy test; details: Flood, 250 g ai/ha; 0 to 100 scale where 0 is no effect and 100 is complete control; 13 to 15 d
How it was run: (§2)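 Compound goes directly into floodwater once pots are flooded 3 cm above soil, targeting plants at two leaves; the water depth is then held for the test duration. Plants sit 13–15 d in a greenhouse and are rated visually, 100 denoting complete control.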

[8] = test system: rice (Oryra sativa); test: Test B flooded paddy test; details: Flood, 250 g ai/ha; 0 to 100 scale where 0 is no effect and 100 is complete control; 13 to 15 d
How it was run: as §2

[9] = test system: barnyardgrass (Echinochloa crus-galli); test: Test B flooded paddy test; details: Flood, 250 g ai/ha; 0 to 100 scale where 0 is no effect and 100 is complete control; 13 to 15 d
How it was run: as §2

[10] = test system: ducksalad (Heteranthera limosa); test: Test B flooded paddy test; details: Flood, 250 g ai/ha; 0 to 100 scale where 0 is no effect and 100 is complete control; 13 to 15 d
How it was run: as §2

[11] = test system: ryegrass, Italian (Italian ryegrass, Lolium multiflorum); test: Test A postemergence
How it was run: as §1

[12] = test system: Galium (catchweed bedstraw, Galium aparine); test: Test A postemergence
How it was run: as §1

[13] = test system: barnyardgrass (Echinochloa crus-galli); test: Test A postemergence; details: for Barnyardgrass plant response rating: 125 g ai/ha, postemergence, visual injury rating on 0 to 100 scale (0 no effect, 100 complete control), approx. 10 d; for Plant response rating, Barnyardgrass: Postemergence, 500 g ai/ha, 0 to 100 scale where 0 is no effect and 100 is complete control
How it was run: as §1

[14] = test system: ragweed (common ragweed, Ambrosia elatior); test: Test A postemergence
How it was run: as §1

[15] = test system: blackgrass (Alopecurus myosuroides); test: Test A postemergence; details: for Blackgrass plant response rating: 125 g ai/ha, postemergence, visual injury rating on 0 to 100 scale (0 no effect, 100 complete control), approx. 10 d; for Plant response rating, Blackgrass: Postemergence, 500 g ai/ha, 0 to 100 scale where 0 is no effect and 100 is complete control
How it was run: as §1

[16] = test system: wheat (Triticum aestivum); test: Test A postemergence
How it was run: as §1

[17] = test system: giant foxtail (Setaria faberii); test: Test A postemergence
How it was run: as §1

[18] = test system: pigweed (Amaranthus retroflexus); test: Test A postemergence
How it was run: as §1

[19] = test system: Kochia (Kochia scoparia); test: Test A postemergence
How it was run: as §1

[20] = test system: corn (Zea mays); test: Test A postemergence
How it was run: as §1

[21] = 125 g ai/ha, postemergence, visual rating after approx. 10 d, 0 to 100 scale (0 no effect, 100 complete control)
[22] = Postemergence, 500 g ai/ha, 0 to 100 scale where 0 is no effect and 100 is complete control

COc1c(F)ccc(NC(=O)C2C(=O)NCC2c2cccc(OC(F)(F)C(F)F)c2)c1F (racemic) [Compound 540]
20: Kochia plant response rating (0 to 100 scale, 0 is no effect, 100 is complete control) [6] | Plant response rating, Ragweed [14, 22]
90: Barnyardgrass plant response rating (0 to 100 scale, 0 is no effect, 100 is complete control) [2] | Plant response rating, Foxtail, Giant [4] | Foxtail, Giant plant response rating (0 to 100 scale, 0 is no effect, 100 is complete control) [4] | Plant response rating, Foxtail, Giant [17, 22]
30: Plant response rating, Ryegrass, Italian [11, 22] | Plant response rating, Corn [20, 21]
0: Plant response rating, Ryegrass, Italian [1] | Plant response rating, Ragweed [3] | Plant response rating, Pigweed [5] | Plant response rating, Kochia [6] | Plant response rating, Sedge, Umbrella [7] | Plant response rating, Rice [8] | Plant response rating, Ryegrass, Italian [11, 21] | Plant response rating, Ragweed [14, 21] | Plant response rating, Wheat [16, 21] | Plant response rating, Pigweed [18, 21] | Plant response rating, Pigweed [18, 22] | Plant response rating, Kochia [19, 21] | Plant response rating, Kochia [19, 22]
80: Plant response rating, Barnyardgrass [2]
50: Blackgrass plant response rating [15]
75: Plant response rating, Ducksalad [10]
40: Ryegrass, Italian plant response rating (0 to 100 scale, 0 is no effect, 100 is complete control) [1]
55: Plant response rating, Barnyardgrass [9]
70: Plant response rating, Galium [12, 22] | Plant response rating, Barnyardgrass [13] | Plant response rating, Foxtail, Giant [17, 21]
60: Pigweed plant response rating (0 to 100 scale, 0 is no effect, 100 is complete control) [5] | Plant response rating, Galium [12, 21] | Barnyardgrass plant response rating [13] | Plant response rating, Blackgrass [15] | Plant response rating, Wheat [16, 22] | Plant response rating, Corn [20, 22]

O=C1NCC(c2cc(F)ccc2F)C1C(=O)Nc1ccccc1F (racemic) [Compound 544]
25: Plant response rating, Barnyardgrass [9]
30: Plant response rating, Barnyardgrass [2]
45: Plant response rating, Ducksalad [10]
80: Barnyardgrass plant response rating (0 to 100 scale, 0 is no effect, 100 is complete control) [2]
70: Plant response rating, Foxtail, Giant [4] | Plant response rating, Barnyardgrass [13]
0: Plant response rating, Ryegrass, Italian [1] | Ryegrass, Italian plant response rating (0 to 100 scale, 0 is no effect, 100 is complete control) [1] | Plant response rating, Ragweed [3] | Ragweed plant response rating (0 to 100 scale, 0 is no effect, 100 is complete control) ([3]; 500 g ai/ha, visual injury approx. 10 d) | Plant response rating, Pigweed [5] | Pigweed plant response rating (0 to 100 scale, 0 is no effect, 100 is complete control) [5] | Plant response rating, Kochia [6] | Kochia plant response rating (0 to 100 scale, 0 is no effect, 100 is complete control) [6] | Plant response rating, Sedge, Umbrella [7] | Plant response rating, Rice [8] | Plant response rating, Ryegrass, Italian [11, 21] | Plant response rating, Ryegrass, Italian [11, 22] | Plant response rating, Galium [12, 21] | Plant response rating, Galium [12, 22] | Plant response rating, Ragweed [14, 21] | Plant response rating, Ragweed [14, 22] | Blackgrass plant response rating [15] | Plant response rating, Blackgrass [15] | Plant response rating, Wheat [16, 21] | Plant response rating, Wheat [16, 22] | Plant response rating, Foxtail, Giant [17, 21] | Plant response rating, Pigweed [18, 21] | Plant response rating, Pigweed [18, 22] | Plant response rating, Kochia [19, 21] | Plant response rating, Kochia [19, 22] | Plant response rating, Corn [20, 21]
20: Barnyardgrass plant response rating [13] | Plant response rating, Corn [20, 22]
90: Foxtail, Giant plant response rating (0 to 100 scale, 0 is no effect, 100 is complete control) [4]
60: Plant response rating, Foxtail, Giant [17, 22]
